Laboratory results from the NIST ThermoML archive (doi:10.1021/je9003959).

Assays:
[1] = refractive index (Na D-line) (dimensionless); details: 101.33 kPa, Liquid, Standard Abbe refractometry
[2] = 101 kPa, Liquid; for viscosity: Capillary tube (Ostwald / Ubbelohde) method; for speed of sound: Cylindrical cavity resonance method
[3] = refractive index (Na D-line) (dimensionless); xn = mol fraction of the nth substance listed; details: 101 kPa, Liquid, Standard Abbe refractometry, x2 = 0
[4] = xn = mol fraction of the nth substance listed; details: 101 kPa, Liquid, x2 = 0; for viscosity: Capillary tube (Ostwald / Ubbelohde) method

CCN1CCCC1=O [1-ethyl-2-pyrrolidinone]
Details | mass density, [2] [kg/m3] | refractive index, [1] | speed of sound, [2] [m/s] | viscosity, [2] [mPa·s]
293 K | 1000.55 | 1.46461 | 1511.6 | 2.133
298 K | 996.24 | 1.46192 | 1492.5 | 2.022
303 K | 991.93 | 1.45791 | 1473.3 | 1.832
313 K | 983.26 | 1.45415 | 1435.3 | 1.621
323 K | 974.56 | 1.45147 | 1398 | 1.358

O [water] + CCN1CCCC1=O
Details | mass density, [4] [kg/m3] | refractive index, [3] | viscosity, [4] [mPa·s]
293 K | 998.26 | 1.33298 | 1.009
298 K | – | 1.33251 | 0.9029
303 K | – | 1.33191 | 0.8133
313 K | 992.26 | 1.33061 | 0.6693
323 K | – | 1.32902 | 0.5611

Details | speed of sound [m/s]
[4], 313 K, Cylindrical cavity resonance method | 1529.1

O [water]
Details | mass density, [2] [kg/m3] | refractive index, [1] | speed of sound, [2] [m/s] | viscosity, [2] [mPa·s]
293 K | 998.26 | 1.33298 | – | 1.009
298 K | – | 1.33251 | – | 0.9029
303 K | – | 1.33191 | – | 0.8133
313 K | 992.26 | 1.33061 | 1529.1 | 0.6693
323 K | – | 1.32902 | – | 0.5611
